Patent US12708629B2, “Methods and compositions for reducing parathyroid levels” (EIRGEN PHARMA LTD., priority 2010, dated 2026)

How the values were obtained:
[1] = Expected rise of serum 25-hydroxyvitamin D3 in a human, stated after the mini-pig result; assay type: in vivo; settings: single dose of 50 μg to a human (about 60 kg)
iPTH = assay: Example 8: iPTH in Stage 3 or 4 CKD subjects; assay type: in vivo, human; settings: single dose: IV 448 μg or 450 μg MR
From the text: (§1) The modified release dosage formulation was the same as formulation 7 in Table 2 herein, with the following exceptions: (1) a vegetable-based capsule was used in place of a gelatin capsule; (2) hard paraffin content was reduced to 20%; and (3) liquid paraffin (light mineral oil) content was increased to 30%.
(§2) The bioavailability of the modified release dosage form was about 10% measured over the duration of the study (42 days).

[2] = Single-dose pharmacokinetics of oral 25-hydroxyvitamin D3 formulations and IV injection in miniature swine (Example 1); assay type: in vivo, Yucatan miniature swine
Method: Nine oral vitamin D formulations were prepared according to Table 2 below by homogeneously mixing the identified components in the amounts shown and filling the mixtures into hard gelatin capsules. Formulation 9 is an immediate-release formulation according to the prior art, wherein MIGLYOL 812N is the trade name for caprylic/capric triglycerides, available from CONDEA Chemie GmbH of Cranford, New Jersey, USA. […] Each group included five animals.
Blood was collected pre-dose, and at 0.5, 1, 2, 4, 6, 8, 12, 24, 48, 96, 168, 240, 336, 432, 504, 576, and 672 hours post dosing. Serum 25-hydroxyvitamin D3 levels were assayed by Liquid Chromatography/Mass Spectrometry/Mass Spectrometry (LC MS/MS).

clinical = settings: human, in vivo, 450 ug
From the text: as §1, §2

[3] = Yucatan, minipig, serum, iv, 250 ug

C=C1CC[C@H](O)C/C1=C/C=C1\CCC[C@]2(C)[C@@H]([C@H](C)CCCC(C)(C)O)CC[C@@H]12 [25-hydroxyvitamin D3]
expected increase of serum 25-hydroxyvitamin D3 [1]: about 1.4 ng/ml | effect on mean iPTH (iPTH): minimal to no effect | effect on mean iPTH (iPTH; listed as IV calcifediol): no clinically meaningful effect | AUC(0-inf) [2, 3]: 16600 ng·h/mL | Cmax [2, 3]: 155 ng/mL | Tmax [2, 3]: 1.5 h | AUC(0-t) ([2]; Yucatan, minipig, serum, iv, 250 ug, read-out: AUC (0-672 hr)): 15000 ng·h/mL | half-life ([2]; Yucatan, minipig, serum, iv, 250 ug, read-out: T½ (converted)): 132 h | BA ([2]; single 250 μg dose, Group 10 IV injection = 100.0): 100.0% | Cmax (clinical): 134 ± 19 ng/mL | half-life (clinical): 1780 h | tmax, AVG (clinical): 0.49 h | Tmax (clinical; AVG): 0.5 ± 0.6 h | Tmax (clinical; Median): 0.25 h
